Read-outs that look alike come from different tables or passages of the source.
Assays:
Test in all cases: KiNativ assay
Assay type in all cases: binding
ZC3/MINK = ZC3/MINK (Homo sapiens (Human), UniProt Q8N4C8); conditions: H929 live cell
Method in brief: (§1)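 Screening used intact H929 cells treated with each compound at 10 μM in duplicate; KiNativ labelling followed, and MS quantitation yielded IC50.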

[1] = system: ALK2, ALK4, ALK7, BMPR1B, TGFbR1; conditions: H929 live cell; for % inhibition: 10 μM, range class
Method in brief: as §1

PIP4K2B = PIP4K2B (Homo sapiens (Human), UniProt P78356); conditions: H929 live cell
Method in brief: as §1

GAK = GAK (Homo sapiens (Human), UniProt O14976); conditions: H929 live cell
Method in brief: (§2)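 Duplicate 10 μM treatment of H929 cells (live); MS-based KiNativ readout; IC50 reported.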

PCTAIRE1 = PCTAIRE1 (Homo sapiens (Human), UniProt Q00536); conditions: H929 live cell
Method in brief: as §1

TAK1 = TAK1 (Homo sapiens (Human), UniProt O43318); conditions: H929 live cell
Method in brief: as §2

ULK3 = ULK3 (Homo sapiens (Human), UniProt Q6PHR2); conditions: H929 live cell
Method in brief: as §2

GPRK6 = GPRK6 (Homo sapiens (Human), UniProt P43250); conditions: H929 live cell
Method in brief: as §2

CDK6 = CDK6 (Homo sapiens (Human), UniProt Q00534); conditions: H929 live cell
Procedure: Biochemical IC50s of the compounds of the present disclosure against various kinases were measured in a KiNativ assay. Compounds were screened in duplicate at 10 μM in H929 live cell. IC50 was measured via Mass spectroscopy (MS).

CaMK4 = CaMK4 (Homo sapiens (Human), UniProt Q16566); conditions: H929 live cell
Method in brief: as §2

ATM = ATM (Homo sapiens (Human), UniProt Q13315); conditions: H929 live cell
Method in brief: as §1

MAP3K15 = MAP3K15 (Homo sapiens (Human), UniProt Q6ZN16); conditions: H929 live cell
Method in brief: as §1

PYK2 = PYK2 (Homo sapiens (Human), UniProt Q14289); conditions: H929 live cell
Method in brief: as §1

MAST1, MAST2 = conditions: H929 live cell; for % inhibition: 10 μM, range class
Method in brief: as §2

[2] = range class, read-out: % inhibition

Sequence of ZC3/MINK (Q8N4C8 whole entry): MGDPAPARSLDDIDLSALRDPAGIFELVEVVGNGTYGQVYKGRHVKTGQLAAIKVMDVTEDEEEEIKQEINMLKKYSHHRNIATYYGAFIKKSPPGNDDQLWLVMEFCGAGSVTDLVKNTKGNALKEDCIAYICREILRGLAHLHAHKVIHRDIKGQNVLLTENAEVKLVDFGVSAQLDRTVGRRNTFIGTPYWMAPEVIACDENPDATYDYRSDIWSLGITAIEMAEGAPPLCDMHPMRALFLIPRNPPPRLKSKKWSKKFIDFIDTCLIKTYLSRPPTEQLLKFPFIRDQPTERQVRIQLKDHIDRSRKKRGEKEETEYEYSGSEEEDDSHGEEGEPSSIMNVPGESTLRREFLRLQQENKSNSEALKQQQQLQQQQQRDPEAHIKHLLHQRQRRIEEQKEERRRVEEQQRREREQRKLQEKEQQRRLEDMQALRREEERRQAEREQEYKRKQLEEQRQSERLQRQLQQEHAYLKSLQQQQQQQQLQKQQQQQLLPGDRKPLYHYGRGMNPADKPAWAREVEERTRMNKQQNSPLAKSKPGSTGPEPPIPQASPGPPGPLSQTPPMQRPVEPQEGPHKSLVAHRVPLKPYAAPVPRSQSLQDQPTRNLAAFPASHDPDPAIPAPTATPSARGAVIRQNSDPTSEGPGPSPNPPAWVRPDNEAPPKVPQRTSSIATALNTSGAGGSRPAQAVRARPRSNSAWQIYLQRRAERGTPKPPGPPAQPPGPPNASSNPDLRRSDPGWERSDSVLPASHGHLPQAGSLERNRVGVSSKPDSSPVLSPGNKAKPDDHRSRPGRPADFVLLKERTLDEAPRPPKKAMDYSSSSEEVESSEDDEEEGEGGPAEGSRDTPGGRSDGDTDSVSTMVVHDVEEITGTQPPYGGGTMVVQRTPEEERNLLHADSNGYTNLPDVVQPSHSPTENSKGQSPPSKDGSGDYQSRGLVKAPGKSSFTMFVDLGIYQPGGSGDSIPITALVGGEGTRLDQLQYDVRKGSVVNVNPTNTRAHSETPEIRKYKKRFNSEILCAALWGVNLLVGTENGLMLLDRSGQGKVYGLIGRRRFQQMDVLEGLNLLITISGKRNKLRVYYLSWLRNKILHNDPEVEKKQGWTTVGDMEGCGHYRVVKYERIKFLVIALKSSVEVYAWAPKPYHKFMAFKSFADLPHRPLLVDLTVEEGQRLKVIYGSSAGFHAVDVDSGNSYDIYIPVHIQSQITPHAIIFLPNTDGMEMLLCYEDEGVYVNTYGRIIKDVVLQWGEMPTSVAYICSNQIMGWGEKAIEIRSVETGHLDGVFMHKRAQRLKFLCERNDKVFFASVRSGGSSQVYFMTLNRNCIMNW
Sequence of TAK1 (O43318 whole entry): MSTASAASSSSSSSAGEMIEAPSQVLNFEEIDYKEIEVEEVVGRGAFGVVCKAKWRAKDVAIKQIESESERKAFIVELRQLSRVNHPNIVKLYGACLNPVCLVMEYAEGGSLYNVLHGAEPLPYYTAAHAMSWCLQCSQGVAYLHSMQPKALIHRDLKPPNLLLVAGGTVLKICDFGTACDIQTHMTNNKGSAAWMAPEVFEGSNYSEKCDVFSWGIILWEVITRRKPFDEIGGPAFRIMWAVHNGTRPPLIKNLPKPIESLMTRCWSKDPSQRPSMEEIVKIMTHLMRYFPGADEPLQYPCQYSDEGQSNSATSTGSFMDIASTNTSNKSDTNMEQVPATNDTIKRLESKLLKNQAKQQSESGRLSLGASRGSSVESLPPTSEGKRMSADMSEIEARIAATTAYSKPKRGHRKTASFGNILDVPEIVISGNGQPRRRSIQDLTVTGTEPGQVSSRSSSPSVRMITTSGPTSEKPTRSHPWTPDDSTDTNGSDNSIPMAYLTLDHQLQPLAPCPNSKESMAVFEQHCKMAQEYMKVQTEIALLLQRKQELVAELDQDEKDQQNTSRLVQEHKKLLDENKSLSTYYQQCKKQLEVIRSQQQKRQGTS
Sequence of MAP3K15 (Q6ZN16 whole entry): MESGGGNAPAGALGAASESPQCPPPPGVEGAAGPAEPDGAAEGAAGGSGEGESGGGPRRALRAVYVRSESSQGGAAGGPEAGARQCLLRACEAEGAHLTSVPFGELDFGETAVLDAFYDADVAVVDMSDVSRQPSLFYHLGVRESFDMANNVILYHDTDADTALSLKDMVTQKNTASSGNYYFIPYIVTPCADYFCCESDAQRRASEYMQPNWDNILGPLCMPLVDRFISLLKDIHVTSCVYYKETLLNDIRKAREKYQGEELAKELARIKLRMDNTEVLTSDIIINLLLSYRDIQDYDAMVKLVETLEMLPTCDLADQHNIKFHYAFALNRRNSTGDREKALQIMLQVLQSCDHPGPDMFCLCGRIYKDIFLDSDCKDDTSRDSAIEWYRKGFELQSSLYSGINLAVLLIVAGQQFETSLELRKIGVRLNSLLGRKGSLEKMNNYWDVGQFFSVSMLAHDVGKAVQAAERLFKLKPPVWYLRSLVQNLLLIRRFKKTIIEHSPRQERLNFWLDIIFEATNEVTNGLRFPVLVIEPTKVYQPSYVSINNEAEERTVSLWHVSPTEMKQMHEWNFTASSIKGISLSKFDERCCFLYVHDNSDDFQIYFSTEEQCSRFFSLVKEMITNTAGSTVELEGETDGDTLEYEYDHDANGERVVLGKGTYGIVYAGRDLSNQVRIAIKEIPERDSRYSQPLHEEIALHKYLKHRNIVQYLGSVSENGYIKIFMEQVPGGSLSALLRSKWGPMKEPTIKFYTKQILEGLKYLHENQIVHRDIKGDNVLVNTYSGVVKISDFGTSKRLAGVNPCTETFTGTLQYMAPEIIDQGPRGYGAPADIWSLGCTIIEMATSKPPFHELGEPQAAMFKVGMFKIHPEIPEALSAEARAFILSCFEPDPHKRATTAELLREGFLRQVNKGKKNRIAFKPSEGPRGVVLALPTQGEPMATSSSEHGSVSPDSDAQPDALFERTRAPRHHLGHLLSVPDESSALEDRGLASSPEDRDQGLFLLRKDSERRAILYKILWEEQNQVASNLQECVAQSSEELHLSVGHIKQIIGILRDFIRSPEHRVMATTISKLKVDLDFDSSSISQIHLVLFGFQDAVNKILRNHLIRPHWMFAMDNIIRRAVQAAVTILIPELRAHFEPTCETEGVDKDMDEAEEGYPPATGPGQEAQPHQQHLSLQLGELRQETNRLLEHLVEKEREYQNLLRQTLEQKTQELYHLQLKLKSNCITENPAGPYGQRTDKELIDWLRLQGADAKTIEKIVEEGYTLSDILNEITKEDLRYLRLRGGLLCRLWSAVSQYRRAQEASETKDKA
Sequence of GAK (O14976 whole entry): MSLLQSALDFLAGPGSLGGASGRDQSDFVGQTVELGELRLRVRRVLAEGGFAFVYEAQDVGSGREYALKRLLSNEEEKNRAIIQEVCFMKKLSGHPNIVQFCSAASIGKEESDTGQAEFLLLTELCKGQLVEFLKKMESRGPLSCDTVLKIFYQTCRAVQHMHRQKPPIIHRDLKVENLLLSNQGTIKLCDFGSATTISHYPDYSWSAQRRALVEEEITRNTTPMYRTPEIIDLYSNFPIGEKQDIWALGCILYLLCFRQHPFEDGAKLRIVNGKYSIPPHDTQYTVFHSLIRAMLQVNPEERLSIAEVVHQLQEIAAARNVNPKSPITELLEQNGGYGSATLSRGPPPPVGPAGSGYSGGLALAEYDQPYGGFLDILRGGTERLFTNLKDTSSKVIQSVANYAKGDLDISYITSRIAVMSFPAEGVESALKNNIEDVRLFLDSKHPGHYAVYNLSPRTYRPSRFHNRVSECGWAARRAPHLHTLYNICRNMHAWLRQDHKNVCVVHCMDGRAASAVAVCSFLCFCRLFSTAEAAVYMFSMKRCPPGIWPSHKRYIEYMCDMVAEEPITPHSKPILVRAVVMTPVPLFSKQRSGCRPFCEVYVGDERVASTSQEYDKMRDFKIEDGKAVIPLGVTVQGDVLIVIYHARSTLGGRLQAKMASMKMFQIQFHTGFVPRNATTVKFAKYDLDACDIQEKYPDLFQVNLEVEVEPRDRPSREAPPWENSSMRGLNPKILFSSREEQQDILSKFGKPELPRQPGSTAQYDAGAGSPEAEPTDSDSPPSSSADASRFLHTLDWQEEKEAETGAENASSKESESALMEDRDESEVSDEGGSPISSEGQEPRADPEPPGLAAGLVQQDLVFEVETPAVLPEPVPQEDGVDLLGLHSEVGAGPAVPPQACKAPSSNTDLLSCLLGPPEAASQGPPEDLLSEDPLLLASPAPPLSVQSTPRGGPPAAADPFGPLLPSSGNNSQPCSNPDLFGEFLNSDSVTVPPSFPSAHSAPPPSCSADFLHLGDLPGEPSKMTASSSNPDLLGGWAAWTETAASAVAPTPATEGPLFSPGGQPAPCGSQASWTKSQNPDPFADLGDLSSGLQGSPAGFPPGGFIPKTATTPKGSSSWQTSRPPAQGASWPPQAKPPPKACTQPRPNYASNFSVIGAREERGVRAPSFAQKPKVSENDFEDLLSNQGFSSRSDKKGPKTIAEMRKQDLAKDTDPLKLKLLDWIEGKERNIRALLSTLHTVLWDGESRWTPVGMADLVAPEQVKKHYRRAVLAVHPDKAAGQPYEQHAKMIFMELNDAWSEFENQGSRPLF
Sequence of ULK3 (Q6PHR2 whole entry): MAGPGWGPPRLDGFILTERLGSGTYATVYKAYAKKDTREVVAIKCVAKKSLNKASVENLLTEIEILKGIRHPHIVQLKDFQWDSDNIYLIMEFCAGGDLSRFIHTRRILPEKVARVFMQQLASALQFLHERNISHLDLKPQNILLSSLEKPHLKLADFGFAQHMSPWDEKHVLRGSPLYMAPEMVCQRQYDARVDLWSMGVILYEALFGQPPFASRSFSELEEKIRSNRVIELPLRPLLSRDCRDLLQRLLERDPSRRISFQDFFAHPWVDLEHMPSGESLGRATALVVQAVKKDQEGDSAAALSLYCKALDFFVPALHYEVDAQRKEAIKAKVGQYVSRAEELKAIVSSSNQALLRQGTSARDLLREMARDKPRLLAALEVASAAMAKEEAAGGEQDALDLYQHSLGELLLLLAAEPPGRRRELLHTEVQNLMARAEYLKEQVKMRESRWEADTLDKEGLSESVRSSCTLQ

COc1cc(NS(=O)(=O)C2CC2)ccc1-c1cnc(N)c(-c2ccc3c(c2)CCNC3=O)c1 [Compound I-50, N-(4-(6-amino-5-(1-oxo-1,2,3,4-tetrahydroisoquinolin-6-yl)pyridin-3-yl)-3-methoxyphenyl) cyclopropanesulfonamide]
inhibition at 10 µM (ZC3/MINK; [2]): 50 to 75% | inhibition at 10 µM (ZC3/MINK; read-out: inhibition (10 μM)): 57.6% | % inhibition [1]: 75-90% | inhibition (10 μM) [1]: 84.0% | inhibition at 10 µM (PIP4K2B; [2]): 0% | inhibition at 10 µM (PIP4K2B; read-out: inhibition (10 μM)): -31.5% | inhibition at 10 µM (GAK; [2]): 50 to 75% | inhibition at 10 µM (GAK; read-out: inhibition (10 μM)): 51.1% | inhibition at 10 µM (PCTAIRE1; [2]): 0% | inhibition at 10 µM (PCTAIRE1; read-out: inhibition (10 μM)): -15.6% | inhibition at 10 µM (TAK1; [2]): 35 to 40% | inhibition at 10 µM (TAK1; read-out: inhibition (10 μM)): 39.1% | inhibition at 10 µM (ULK3; [2]): 0% | inhibition at 10 µM (ULK3; read-out: inhibition (10 μM)): -14.2% | inhibition at 10 µM (GPRK6; [2]): 0% | inhibition at 10 µM (GPRK6; read-out: inhibition (10 μM)): -40.5% | inhibition at 10 µM (CDK6; [2]): 0% | inhibition at 10 µM (CDK6; read-out: inhibition (10 μM)): 15% | inhibition at 10 µM (CaMK4; [2]): 0% | inhibition at 10 µM (CaMK4; read-out: inhibition (10 μM)): -17.9% | inhibition at 10 µM (ATM; [2]): 0% | inhibition at 10 µM (ATM; read-out: inhibition (10 μM)): 34.6% | inhibition at 10 µM (MAP3K15; [2]): 35 to 40% | inhibition at 10 µM (MAP3K15; read-out: inhibition (10 μM)): 46.7% | inhibition at 10 µM (PYK2; [2]): 0% | inhibition at 10 µM (PYK2; read-out: inhibition (10 μM)): 31.5% | % inhibition (MAST1, MAST2): 0.0% | inhibition (10 μM) (MAST1, MAST2): 2.6%

Nc1ncc(-c2ccc(NS(=O)(=O)C3CC3)cc2F)cc1-c1ccc2c(c1)CCNC2=O [Compound I-51, N-(4-(6-amino-5-(1-oxo-1,2,3,4-tetrahydroisoquinolin-6-yl)pyridin-3-yl)-3-fluorophenyl) cyclopropanesulfonamide]
inhibition at 10 µM (ZC3/MINK; [2]): 50 to 75% | inhibition at 10 µM (ZC3/MINK; read-out: inhibition (10 μM)): 63.4% | % inhibition [1]: 75-90% | inhibition (10 μM) [1]: 76.2% | inhibition at 10 µM (PIP4K2B; [2]): 0% | inhibition at 10 µM (PIP4K2B; read-out: inhibition (10 μM)): -47.1% | inhibition at 10 µM (GAK; [2]): 50 to 75% | inhibition at 10 µM (GAK; read-out: inhibition (10 μM)): 50.4% | inhibition at 10 µM (PCTAIRE1; [2]): 0% | inhibition at 10 µM (PCTAIRE1; read-out: inhibition (10 μM)): -0.2% | inhibition at 10 µM (TAK1; [2]): 0% | inhibition at 10 µM (TAK1; read-out: inhibition (10 μM)): 30% | inhibition at 10 µM (ULK3; [2]): 0% | inhibition at 10 µM (ULK3; read-out: inhibition (10 μM)): 1.8% | inhibition at 10 µM (GPRK6; [2]): 0% | inhibition at 10 µM (GPRK6; read-out: inhibition (10 μM)): 4.7% | inhibition at 10 µM (CDK6; [2]): 0% | inhibition at 10 µM (CDK6; read-out: inhibition (10 μM)): 10.7% | inhibition at 10 µM (CaMK4; [2]): 0% | inhibition at 10 µM (CaMK4; read-out: inhibition (10 μM)): -61.2% | inhibition at 10 µM (ATM; [2]): 35 to 40% | inhibition at 10 µM (ATM; read-out: inhibition (10 μM)): 40.3% | inhibition at 10 µM (MAP3K15; [2]): 35 to 40% | inhibition at 10 µM (MAP3K15; read-out: inhibition (10 μM)): 36.4% | inhibition at 10 µM (PYK2; [2]): 0% | inhibition at 10 µM (PYK2; read-out: inhibition (10 μM)): 30.1% | % inhibition (MAST1, MAST2): 0.0% | inhibition (10 μM) (MAST1, MAST2): −2.9%

Nc1ncc(-c2ccc(NS(=O)(=O)C3CC3)cc2OC2CCCCC2)cc1-c1ccc2c(c1)CCNC2=O [Compound I-65, N-(4-(6-amino-5-(1-oxo-1,2,3,4-tetrahydroisoquinolin-6-yl)pyridin-3-yl)-3-(cyclohexyloxy)phenyl) cyclopropanesulfonamide]
inhibition at 10 µM (ZC3/MINK; [2]): 50 to 75% | inhibition at 10 µM (ZC3/MINK; read-out: inhibition (10 μM)): 66.6% | % inhibition [1]: >90% | inhibition (10 μM) [1]: 91.0% | inhibition at 10 µM (PIP4K2B; [2]): 0% | inhibition at 10 µM (PIP4K2B; read-out: inhibition (10 μM)): -8.9% | inhibition at 10 µM (GAK; [2]): 0% | inhibition at 10 µM (GAK; read-out: inhibition (10 μM)): 7.7% | inhibition at 10 µM (PCTAIRE1; [2]): 0% | inhibition at 10 µM (PCTAIRE1; read-out: inhibition (10 μM)): 9% | inhibition at 10 µM (TAK1; [2]): 35 to 40% | inhibition at 10 µM (TAK1; read-out: inhibition (10 μM)): 35% | inhibition at 10 µM (ULK3; [2]): 0% | inhibition at 10 µM (ULK3; read-out: inhibition (10 μM)): 30.6% | inhibition at 10 µM (GPRK6; [2]): 0% | inhibition at 10 µM (GPRK6; read-out: inhibition (10 μM)): 23.1% | inhibition at 10 µM (CDK6; [2]): 0% | inhibition at 10 µM (CDK6; read-out: inhibition (10 μM)): 0.5% | inhibition at 10 µM (CaMK4; [2]): 0% | inhibition at 10 µM (CaMK4; read-out: inhibition (10 μM)): -21% | inhibition at 10 µM (ATM; [2]): 35 to 40% | inhibition at 10 µM (ATM; read-out: inhibition (10 μM)): 48% | inhibition at 10 µM (MAP3K15; [2]): 0% | inhibition at 10 µM (MAP3K15; read-out: inhibition (10 μM)): 29.7% | inhibition at 10 µM (PYK2; [2]): 35 to 40% | inhibition at 10 µM (PYK2; read-out: inhibition (10 μM)): 38.7% | % inhibition (MAST1, MAST2): 0.0% | inhibition (10 μM) (MAST1, MAST2): 3.0%

— patent US10710978B2, “STK4 inhibitors for treatment of hematologic malignancies” (Dana-Farber Cancer Institute, Inc., priority 2015, dated 2020)
